Source: patent publication US20210340120A1, “PESTICIDALLY ACTIVE AZOLE-AMIDE COMPOUNDS” (SYNGENTA PARTICIPATIONS AG, priority 2018, published 2021)

Tests used:
Format in all cases: in vivo
[1] = tested on: Plutella xylostella; assay: Example B3: Plutella xylostella (diamond back moth), artificial diet, eggs; details: 192 h, application rate 200 ppm, 8 days after infestation, read-out: control in at least one of the two categories (mortality or growth inhibition)
Description: 24-well microtiter plates with artificial diet were treated with aqueous test solutions prepared from 10′000 ppm DMSO stock solutions by pipetting. After drying, Plutella eggs were pipetted through a plastic stencil onto a gel blotting paper and the plate was closed with it. The samples were assessed for mortality and growth inhibition in comparison to untreated samples 8 days after infestation. The following compounds gave an effect of at least 80% control in at least one of the two categories (mortality or growth inhibition) at an application rate of 200 ppm: P1, P2, P3, P4, P5, P6

[2] = tested on: Diabrotica balteata; assay: Example B1: Diabrotica balteata (corn root worm), maize sprouts sprayed, L2 larvae; details: 96 h, application rate 200 ppm, 4 days after infestation, read-out: control in at least one of the two categories (mortality or growth inhibition)
Description: Maize sprouts placed onto an agar layer in 24-well microtiter plates were treated with aqueous test solutions prepared from 10′000 ppm DMSO stock solutions by spraying. After drying, the plates were infested with L2 larvae (6 to 10 per well). The samples were assessed for mortality and growth inhibition in comparison to untreated samples 4 days after infestation.

[3] = tested on: Spodoptera littoralis; assay: Example B6: Spodoptera littoralis (Egyptian cotton leaf worm), cotton leaf discs, L1 larvae; details: foliar, 72 h, application rate 200 ppm, 3 days after infestation, read-out: control in at least one of the categories (mortality, anti-feedant effect, or growth inhibition)
Description: Cotton leaf discs were placed onto agar in 24-well microtiter plates and sprayed with aqueous test solutions prepared from 10′000 ppm DMSO stock solutions. After drying the leaf discs were infested with five L1 larvae. The samples were assessed for mortality, anti-feeding effect, and growth inhibition in comparison to untreated samples 3 days after infestation. Control of Spodoptera littoralis by a test sample is given when at least one of the categories mortality, anti-feedant effect, and growth inhibition is higher than the untreated sample.

[4] = tested on: Tetranychus urticae; assay: Example B7: Tetranychus urticae (two-spotted spider mite) feeding/contact activity, bean leaf discs; details: foliar, 192 h
Description: Bean leaf discs on agar in 24-well microtiter plates were sprayed with aqueous test solutions prepared from 10′000 ppm DMSO stock solutions. After drying the leaf discs were infested with a mite population of mixed ages. The samples were assessed for mortality on mixed population (mobile stages) 8 days after infestation.

[5] = tested on: Euschistus heros; assay: Example B2: Euschistus heros (neotropical brown stink bug), soybean leaves sprayed, N2 nymphs; details: 120 h, application rate 200 ppm, 5 days after infestation, read-out: control in at least one of the two categories (mortality or growth inhibition)
Description: Soybean leaves on agar in 24-well microtiter plates were sprayed with aqueous test solutions prepared from 10′000 ppm DMSO stock solutions. After drying the leaves were infested with N2 nymphs. The samples were assessed for mortality and growth inhibition in comparison to untreated samples 5 days after infestation.

[6] = tested on: Myzus persicae; assay: Example B5: Myzus persicae (green peach aphid) intrinsic activity, sucrose solution, 24-well; details: 120 h, test rate 12 ppm, 5 days after infestation
Description: Test compounds prepared from 10′000 ppm DMSO stock solutions were applied by pipette into 24-well microtiter plates and mixed with sucrose solution. The plates were closed with a stretched Parafilm. A plastic stencil with 24 holes was placed onto the plate and infested pea seedlings were placed directly on the Parafilm. The infested plate was closed with a gel blotting paper and another plastic stencil and then turned upside down. The samples were assessed for mortality 5 days after infestation.

[7] = tested on: Thrips tabaci; assay: Example B8: Thrips tabaci (onion thrips) feeding/contact activity, sunflower leaf discs; details: foliar, 144 h, application rate 200 ppm, 6 days after infestation, mixed ages
Description: Sunflower leaf discs were placed on agar in 24-well microtiter plates and sprayed with aqueous test solutions prepared from 10′000 ppm DMSO stock solutions. After drying the leaf discs were infested with a thrips population of mixed ages. The samples were assessed for mortality 6 days after infestation.

[8] = tested on: Myzus persicae; assay: Example B10: Myzus persicae (green peach aphid), sucrose solution, 96-well; details: 120 h, application rate 50 ppm, 5 days after infestation
Description: Test compounds prepared from 10′000 ppm DMSO stock solutions were applied by a liquid handling robot into 96-well microtiter plates and mixed with a sucrose solution. Parafilm was stretched over the 96-well microtiter plate and a plastic stencil with 96 holes was placed onto the plate. Aphids were sieved into the wells directly onto the Parafilm. The infested plates were closed with a gel blotting card and a second plastic stencil and then turned upside down. The samples were assessed for mortality 5 days after infestation.

[9] = tested on: Chilo suppressalis; assay: Example B9: Chilo suppressalis (striped rice stemborer), artificial diet, L2 larvae; details: 144 h, application rate 200 ppm, 6 days after infestation, read-out: control in at least one of the three categories (mortality, anti-feedant effect or growth inhibition)
Description: 24-well microtiter plates with artificial diet were treated with aqueous test solutions prepared from 10′000 ppm DMSO stock solutions by pipetting. After drying, the plates were infested with L2 larvae (6-8 per well). The samples were assessed for mortality, anti-feeding effect, and growth inhibition in comparison to untreated samples 6 days after infestation. Control of Chilo suppressalis by a test sample is given when at least one of the categories mortality, anti-feedant effect, and growth inhibition is higher than the untreated sample.

[10] = tested on: Myzus persicae; assay: Example B4: Myzus persicae (green peach aphid) feeding/contact activity, sunflower leaf discs; details: foliar, 144 h, application rate 200 ppm, 6 days after infestation, mixed ages
Description: Sunflower leaf discs were placed onto agar in a 24-well microtiter plate and sprayed with aqueous test solutions prepared from 10′000 ppm DMSO stock solutions. After drying, the leaf discs were infested with an aphid population of mixed ages. The samples were assessed for mortality 6 days after infestation.

CC(c1ncnn1-c1ncccc1F)N(CC1CC1)C(=O)c1cc(C(F)(F)F)cc(C(F)(F)F)c1 (stereo not shown) [Compound P2, N-(cyclopropylmethyl)-N-[1-[2-(3-fluoro-2-pyridyl)-1,2,4-triazol-3-yl]ethyl]-3,5-bis(trifluoromethyl)benzamide]
≥ 80%: percent control (mortality or growth inhibition) at 200 ppm [1] | percent control (mortality or growth inhibition) at 200 ppm [2] | percent control (mortality, anti-feedant effect or growth inhibition) at 200 ppm [3]

CC(NC(=O)c1cc(C(F)(F)F)cc(C(F)(F)F)c1)c1ncnn1-c1ccc(F)cn1 (stereo not shown) [Compound P3, N-[1-[2-(5-fluoro-2-pyridyl)-1,2,4-triazol-3-yl]ethyl]-3,5-bis(trifluoromethyl)benzamide]
≥ 80%: percent control (mortality or growth inhibition) at 200 ppm [1] | mortality at 200 ppm [4] | percent control (mortality or growth inhibition) at 200 ppm [5] | percent control (mortality or growth inhibition) at 200 ppm [2] | mortality at 12 ppm [6] | percent control (mortality, anti-feedant effect or growth inhibition) at 200 ppm [3]

CC(NC(=O)c1cc(C(F)(F)F)cc(C(F)(F)F)c1)c1ncnn1-c1ncccc1F (stereo not shown) [Compound P4, N-[1-[2-(3-fluoro-2-pyridyl)-1,2,4-triazol-3-yl]ethyl]-3,5-bis(trifluoromethyl)benzamide]
≥ 80%: percent control (mortality or growth inhibition) at 200 ppm [1] | percent control (mortality or growth inhibition) at 200 ppm [5] | percent control (mortality or growth inhibition) at 200 ppm [2] | mortality at 200 ppm [7] | mortality at 50 ppm [8] | percent control (mortality, anti-feedant effect or growth inhibition) at 200 ppm [3]

CC(NC(=O)c1cc(C(F)(F)F)cc(C(F)(F)F)c1)c1ncnn1-c1ccc(Cl)cn1 (stereo not shown) [Compound P1, N-[1-[2-(5-chloro-2-pyridyl)-1,2,4-triazol-3-yl]ethyl]-3,5-bis(trifluoromethyl)benzamide]
≥ 80%: percent control (mortality or growth inhibition) at 200 ppm [1] | percent control (mortality or growth inhibition) at 200 ppm [5] | percent control (mortality or growth inhibition) at 200 ppm [2] | percent control (mortality, anti-feedant effect or growth inhibition) at 200 ppm [9] | percent control (mortality, anti-feedant effect or growth inhibition) at 200 ppm [3]

CC(NC(=O)c1cc(C(F)(F)F)cc(C(F)(F)F)c1)c1ncnn1-c1cccc(F)n1 (stereo not shown) [Compound P6, N-[1-[2-(6-fluoro-2-pyridyl)-1,2,4-triazol-3-yl]ethyl]-3,5-bis(trifluoromethyl)benzamide]
≥ 80%: percent control (mortality or growth inhibition) at 200 ppm [1] | percent control (mortality, anti-feedant effect or growth inhibition) at 200 ppm [9]

CC(c1ncnn1-c1ccc(F)cn1)N(CC1CC1)C(=O)c1cc(C(F)(F)F)cc(C(F)(F)F)c1 (stereo not shown) [Compound P5, N-(cyclopropylmethyl)-N-[1-[2-(5-fluoro-2-pyridyl)-1,2,4-triazol-3-yl]ethyl]-3,5-bis(trifluoromethyl)benzamide]
≥ 80%: percent control (mortality or growth inhibition) at 200 ppm [1] | mortality at 200 ppm [4] | percent control (mortality or growth inhibition) at 200 ppm [5] | percent control (mortality or growth inhibition) at 200 ppm [2] | mortality at 200 ppm [10] | percent control (mortality, anti-feedant effect or growth inhibition) at 200 ppm [3]
